Test results from patent US10040781B2, “Tank-binding kinase inhibitor compounds” (Gilead Sciences, Inc., priority 2014, dated 2018).
Where two headings read alike, the source gives them in different places.

What was measured:
IKKε = IKKε (Homo sapiens (Human), UniProt Q14164); assay: IKKε TR-FRET enzymatic assay; format: biochemical
TBK1 = TBK1 (Homo sapiens (Human), UniProt Q9UHD2); assay: TBK1 TR-FRET enzymatic assay;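 note: phosphorylation of a biotinylated Ser/Thr peptide by purified full-length recombinant TBK1, read by TR-FRET after 240 min at 25 °C, IC50 is the geometric mean of at least four runs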
Chain of TBK1 (Q9UHD2 whole entry): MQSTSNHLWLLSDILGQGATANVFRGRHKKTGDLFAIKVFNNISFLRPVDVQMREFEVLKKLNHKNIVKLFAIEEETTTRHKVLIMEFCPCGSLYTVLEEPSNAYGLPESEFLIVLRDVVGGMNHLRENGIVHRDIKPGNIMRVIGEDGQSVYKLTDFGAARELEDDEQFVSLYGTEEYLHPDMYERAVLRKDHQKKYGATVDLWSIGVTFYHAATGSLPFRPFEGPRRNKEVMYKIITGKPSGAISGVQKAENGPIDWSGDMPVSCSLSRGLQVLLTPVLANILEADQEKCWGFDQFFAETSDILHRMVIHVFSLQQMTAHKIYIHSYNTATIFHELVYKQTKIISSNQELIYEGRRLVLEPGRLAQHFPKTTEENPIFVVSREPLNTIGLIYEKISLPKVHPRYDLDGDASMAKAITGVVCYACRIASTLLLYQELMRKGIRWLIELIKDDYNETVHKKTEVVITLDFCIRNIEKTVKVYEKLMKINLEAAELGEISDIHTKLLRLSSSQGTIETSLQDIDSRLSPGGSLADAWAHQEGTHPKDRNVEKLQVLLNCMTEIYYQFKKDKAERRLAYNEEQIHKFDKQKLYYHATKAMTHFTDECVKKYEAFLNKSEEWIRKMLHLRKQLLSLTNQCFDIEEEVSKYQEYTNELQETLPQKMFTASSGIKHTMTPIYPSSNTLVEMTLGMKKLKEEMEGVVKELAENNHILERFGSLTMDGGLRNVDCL

Chain of IKKε (Q14164 whole entry): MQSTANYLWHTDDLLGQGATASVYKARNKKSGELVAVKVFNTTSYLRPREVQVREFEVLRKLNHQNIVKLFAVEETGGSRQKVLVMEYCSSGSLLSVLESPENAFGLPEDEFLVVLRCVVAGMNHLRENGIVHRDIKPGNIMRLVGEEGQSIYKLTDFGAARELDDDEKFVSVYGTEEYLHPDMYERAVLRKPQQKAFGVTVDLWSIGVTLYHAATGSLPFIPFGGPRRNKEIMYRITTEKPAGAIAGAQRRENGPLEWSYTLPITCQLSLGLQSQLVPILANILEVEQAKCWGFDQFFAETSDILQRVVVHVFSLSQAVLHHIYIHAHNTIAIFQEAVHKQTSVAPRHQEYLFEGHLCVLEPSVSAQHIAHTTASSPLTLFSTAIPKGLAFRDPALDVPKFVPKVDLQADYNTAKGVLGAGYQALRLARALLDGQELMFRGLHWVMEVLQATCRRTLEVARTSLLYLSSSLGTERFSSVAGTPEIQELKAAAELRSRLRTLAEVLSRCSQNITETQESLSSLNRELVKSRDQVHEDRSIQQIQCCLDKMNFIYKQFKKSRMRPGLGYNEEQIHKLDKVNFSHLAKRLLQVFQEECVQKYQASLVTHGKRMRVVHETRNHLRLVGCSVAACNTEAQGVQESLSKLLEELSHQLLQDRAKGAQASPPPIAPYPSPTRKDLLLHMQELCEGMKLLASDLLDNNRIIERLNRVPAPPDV

Molecule `N#Cc1cc(-c2ncnc(Nc3ccc(N4CCN(C5COC5)CC4)cc3)n2)ccc1OC1CC[S+]([O-])CC1` (single isomer, unassigned) [Example 26, 5-(4-((4-(4-(oxetan-3-yl)piperazin-1-yl)phenyl)amino)-1,3,5-triazin-2-yl)-2-((1-oxidotetrahydro-2H-thiopyran-4-yl)oxy)benzonitrile] has an IC50 (IKKε; IKKe IC50) of 23 nM and an IC50 (TBK1; TBK1 IC50) of 6 nM.
`COC(=O)N1CC[C@@H](Oc2ccc(-c3ncnc(Nc4ccc(N5CCN(C6COC6)CC5)cc4)n3)cc2C#N)C1` [Example 2, (R)-methyl 3-(2-cyano-4-(4-((4-(4-(oxetan-3-yl)piperazin-1-yl)phenyl)amino)-1,3,5-triazin-2-yl)phenoxy)pyrrolidine-1-carboxylate] gave an IC50 (IKKε; read-out: IKKe IC50) of 148 nM and an IC50 (TBK1) of 37 nM.
`CNC(=O)c1ccc(Nc2ncnc(-c3ccc(OC4CCOCC4)c(C#N)c3)n2)cc1` [Example 14, 4-((4-(3-cyano-4-((tetrahydro-2H-pyran-4-yl)oxy)phenyl)-1,3,5-triazin-2-yl)amino)-N-methylbenzamide] was tested, and the IC50 (IKKε; read-out: IKKe IC50) was 21 nM and the IC50 (TBK1) was 4 nM.
Work on `N#Cc1cc(-c2ncnc(Nc3ccc(N4CCN(C5COC5)CC4)cc3)n2)ccc1O[C@@H]1CCOC1` [Example 29, (R)-5-(4-((4-(4-(oxetan-3-yl)piperazin-1-yl)phenyl)amino)-1,3,5-triazin-2-yl)-2-((tetrahydrofuran-3-yl)oxy)benzonitrile] yielded an IC50 (IKKε; read-out: IKKe IC50) of 32 nM and an IC50 (TBK1) of 5 nM.
For `N#Cc1cc(-c2ncnc(Nc3ccc(N4CCOCC4)cc3)n2)ccc1NC(=O)[C@@H]1CCCN1` [Example 37, (S)—N-(2-cyano-4-(4-((4-morpholinophenyl)amino)-1,3,5-triazin-2-yl)phenyl)pyrrolidine-2-carboxamide], the IC50 (IKKε; read-out: IKKe IC50) was 305 nM and the IC50 (TBK1) was 203 nM.
`COc1cc(Nc2ncnc(-c3ccc(OC4CCOCC4)c(C#N)c3)n2)cc(F)c1N1CCN(C2COC2)CC1` [Example 61, 5-(4-((3-fluoro-5-methoxy-4-(4-(oxetan-3-yl)piperazin-1-yl)phenyl)amino)-1,3,5-triazin-2-yl)-2-((tetrahydro-2H-pyran-4-yl)oxy)benzonitrile] gave an IC50 (IKKε; read-out: IKKe IC50) of 7 nM and an IC50 (TBK1) of 2 nM.
For `N#Cc1cc(-c2ncnc(Nc3ccc(N4CCN(C(=O)CO)CC4)cc3)n2)ccc1OC1CCOCC1` [Example 64, 5-(4-((4-(4-(2-hydroxyacetyl)piperazin-1-yl)phenyl)amino)-1,3,5-triazin-2-yl)-2-((tetrahydro-2H-pyran-4-yl)oxy)benzonitrile], the IC50 (IKKε; read-out: IKKe IC50) was 5 nM and the IC50 (TBK1) was 1 nM.
`N#CCC(=O)N1CC[C@H](Oc2ccc(-c3ncnc(Nc4ccc(N5CCN(C6COC6)CC5)cc4)n3)cc2C#N)C(F)(F)C1` [Example 160, (S)-2-((1-(2-cyanoacetyl)-3,3-difluoropiperidin-4-yl)oxy)-5-(4-((4-(4-(oxetan-3-yl)piperazin-1-yl)phenyl)amino)-1,3,5-triazin-2-yl)benzonitrile] was tested, and the IC50 (IKKε; read-out: IKKe IC50) was 2 nM and the IC50 (TBK1) was 3 nM.
Molecule `N#Cc1cc(-c2ncnc(Nc3ccc(N4CCN(C5COC5)CC4)cc3)n2)ccc1O[C@H]1CCN(C(=O)c2cnn[nH]2)CC1(F)F` [Example 165, (S)-2-((3,3-difluoro-1-(1H-1,2,3-triazole-5-carbonyl)piperidin-4-yl)oxy)-5-(4-((4-(4-(oxetan-3-yl)piperazin-1-yl)phenyl)amino)-1,3,5-triazin-2-yl)benzonitrile] has an IC50 (IKKε; read-out: IKKe IC50) of 1 nM and an IC50 (TBK1) of 2 nM.
For `N#Cc1cc(-c2ncnc(Nc3ccc(N4CCN(C5COC5)CC4)cc3)n2)ccc1OC1CCN(C(=O)c2ncc[nH]2)CC1` [Example 189, 2-((1-(1H-imidazole-2-carbonyl)piperidin-4-yl)oxy)-5-(4-((4-(4-(oxetan-3-yl)piperazin-1-yl)phenyl)amino)-1,3,5-triazin-2-yl)benzonitrile], the IC50 (IKKε; read-out: IKKe IC50) was 19 nM and the IC50 (TBK1) was 5 nM.
`CN1CC2(CCN(c3ccc(-c4ncnc(Nc5ccc(N6CCN(C7COC7)CC6)cc5)n4)cc3C#N)CC2)C1` [Example 209, 2-(2-methyl-2,7-diazaspiro[3.5]nonan-7-yl)-5-(4-((4-(4-(oxetan-3-yl)piperazin-1-yl)phenyl)amino)-1,3,5-triazin-2-yl)benzonitrile] showed an IC50 (IKKε; read-out: IKKe IC50) of 213 nM and an IC50 (TBK1) of 49 nM.
With `N#Cc1cc(-c2ncnc(Nc3ccc(N4CCN(C5COC5)CC4)cc3)n2)ccc1O[C@H]1CCOC1` [Example 216, (S)-5-(4-((4-(4-(oxetan-3-yl)piperazin-1-yl)phenyl)amino)-1,3,5-triazin-2-yl)-2-((tetrahydrofuran-3-yl)oxy)benzonitrile] the IC50 (IKKε; read-out: IKKe IC50) was 42 nM and the IC50 (TBK1) was 13 nM.
`C[C@H]1CN(C2COC2)CCN1c1ccc(Nc2ncnc(-c3ccc(O[C@H]4CCN(C(=O)c5cnn[nH]5)CC4(F)F)c(C#N)c3)n2)cc1` [Example 258, 2-(((S)-3,3-difluoro-1-(1H-1,2,3-triazole-5-carbonyl)piperidin-4-yl)oxy)-5-(4-((4-((S)-2-methyl-4-(oxetan-3-yl)piperazin-1-yl)phenyl)amino)-1,3,5-triazin-2-yl)benzonitrile] showed an IC50 (IKKε; read-out: IKKe IC50) of 1 nM and an IC50 (TBK1) of 3 nM.
Molecule `CS(=O)(=O)OC1CN(c2ccc(-c3ncnc(Nc4ccc(N5CCN(C6COC6)CC5)cc4)n3)cc2C#N)C1` [Example 276, 1-(2-cyano-4-(4-((4-(4-(oxetan-3-yl)piperazin-1-yl)phenyl)amino)-1,3,5-triazin-2-yl)phenyl)azetidin-3-yl methanesulfonate] has an IC50 (IKKε; read-out: IKKe IC50) of 38 nM and an IC50 (TBK1) of 23 nM.
In the case of `Cc1nnsc1COc1ccc(-c2ncnc(Nc3ccc(N4CCN(C5COC5)CC4)cc3)n2)cc1C#N` [Example 284, 2-((4-methyl-1,2,3-thiadiazol-5-yl)methoxy)-5-(4-((4-(4-(oxetan-3-yl)piperazin-1-yl)phenyl)amino)-1,3,5-triazin-2-yl)benzonitrile], the IC50 (IKKε; read-out: IKKe IC50) is reported as at least 1000 nM and the IC50 (TBK1) is reported as 475 nM.
`COC(=O)N1CC[C@H](Oc2ccc(-c3ncnc(Nc4ccc(N5CCN(C6COC6)CC5)cc4)n3)cc2C#N)[C@H](F)C1` [Example 290, (3R,4S)-methyl 4-(2-cyano-4-(4-((4-(4-(oxetan-3-yl)piperazin-1-yl)phenyl)amino)-1,3,5-triazin-2-yl)phenoxy)-3-fluoropiperidine-1-carboxylate] showed an IC50 (IKKε; read-out: IKKe IC50) of 32 nM and an IC50 (TBK1) of 13 nM.
With `N#Cc1cc(-c2ncnc(Nc3ccc(N4CCNCC4)c(F)c3)n2)ccc1O[C@H]1CCOC[C@H]1F` [Example 298, 5-(4-((3-fluoro-4-(piperazin-1-yl)phenyl)amino)-1,3,5-triazin-2-yl)-2-(((3R,4S)-3-fluorotetrahydro-2H-pyran-4-yl)oxy)benzonitrile] the IC50 (IKKε; read-out: IKKe IC50) was 1 nM and the IC50 (TBK1) was 4 nM.
In the case of `N#Cc1cc(-c2ncnc(Nc3ccc(N4CCN(C5COC5)CC4)cc3)n2)ccc1O[C@H]1CCN(C(=O)c2cnc(N)cn2)C[C@H]1F` [Example 341, 2-(((3R,4S)-1-(5-aminopyrazine-2-carbonyl)-3-fluoropiperidin-4-yl)oxy)-5-(4-((4-(4-(oxetan-3-yl)piperazin-1-yl)phenyl)amino)-1,3,5-triazin-2-yl)benzonitrile], the IC50 (IKKε; read-out: IKKe IC50) is reported as 1 nM and the IC50 (TBK1) is reported as 2 nM.
`Cc1nc(C)c(C(=O)N2CC[C@H](Oc3ccc(-c4ncnc(Nc5ccc(N6CCN(C7COC7)CC6)cc5)n4)cc3C#N)[C@H](F)C2)[nH]1` [Example 345, 2-(((3R,4S)-1-(2,4-dimethyl-1H-imidazole-5-carbonyl)-3-fluoropiperidin-4-yl)oxy)-5-(4-((4-(4-(oxetan-3-yl)piperazin-1-yl)phenyl)amino)-1,3,5-triazin-2-yl)benzonitrile] showed an IC50 (IKKε; read-out: IKKe IC50) of 12 nM and an IC50 (TBK1) of 10 nM.
